Laboratory results from patent US10899774B2, “IRAK4 modulators” (Genentech, Inc., priority 2017, dated 2021).

Target: human IRAK4 (Homo sapiens (Human), UniProt Q9NWZ3)
Test: IRAK4 kinase inhibition, Transcreener fluorescence polarization (ADP detection)
Assay type: biochemical
Conditions: recombinant full-length His6-IRAK4; 1.25 nM IRAK4; 125 μM ATP; 90 min; ATP Km 642 μM
Procedure: Compounds were assayed for inhibition of human IRAK4 and IRAK1 catalytic activity using recombinant enzyme produced from insect cells. Full-length IRAK4 protein, carrying an N-terminal His6-Tag, was obtained from Life Technologies (Carlsbad, Calif., USA). The IRAK1 construct was produced internally and was comprised of IRAK1 residues Arg194 to Ser712, preceded by an NH2-terminal His6 tag and the coding sequence for glutathione-S-transferase.
Kinase activities were assayed using the Transcreener-Fluorecescence polarization platform (BelBrook Labs, Madison, Wis., USA) that measures amounts of the reaction product, ADP.
384 well assay plates spotted with compound received 4 μl of a 2× substrate (ATP+peptide) mix in reaction buffer, followed by 4 μl of 2× enzyme diluted in reaction buffer.

Sequence of human IRAK4 (Q9NWZ3 whole entry): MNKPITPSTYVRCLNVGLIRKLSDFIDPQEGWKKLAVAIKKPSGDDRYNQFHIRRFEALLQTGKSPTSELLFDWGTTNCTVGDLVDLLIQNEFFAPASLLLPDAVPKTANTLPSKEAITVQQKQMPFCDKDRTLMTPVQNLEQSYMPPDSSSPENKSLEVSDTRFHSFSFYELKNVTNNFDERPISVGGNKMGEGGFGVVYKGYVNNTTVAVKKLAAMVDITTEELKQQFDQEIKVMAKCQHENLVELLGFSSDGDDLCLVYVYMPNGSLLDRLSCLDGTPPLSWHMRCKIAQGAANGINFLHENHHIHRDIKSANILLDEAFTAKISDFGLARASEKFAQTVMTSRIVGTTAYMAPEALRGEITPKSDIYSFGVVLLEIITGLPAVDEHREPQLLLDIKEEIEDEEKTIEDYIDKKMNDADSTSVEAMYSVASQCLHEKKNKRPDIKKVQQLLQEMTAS

Ki [nM] | SMILES
48 | Cn1ccc(C(=O)Nc2cc3c(cc2N2CCOCC2)O[C@](C)(CO)C3)n1 (single isomer, unassigned) [Example 16]
120 | Cn1ccc(C(=O)Nc2cc3c(cc2N2CCOCC2)O[C@@](C)(CO)C3)n1 (single isomer, unassigned) [Example 17]
3.4 | C[C@@]1(CO)Cc2cc(NC(=O)c3ccc4cccnn34)c(N3CCOCC3)cc2O1 (single isomer, unassigned) [Example 18]
21 | C[C@]1(CO)Cc2cc(NC(=O)c3ccc4cccnn34)c(N3CCOCC3)cc2O1 (single isomer, unassigned) [Example 19]
3.6 | C[C@@]1(CO)Cc2cc(NC(=O)c3ccc4cncnn34)c(N3CCOCC3)cc2O1 (single isomer, unassigned) [Example 23]
7.7 | C[C@]1(CO)Cc2cc(NC(=O)c3ccc4cncnn34)c(N3CCOCC3)cc2O1 (single isomer, unassigned) [Example 24]
180 | Cn1nnc2c(C(=O)Nc3cc4c(cc3N3CCOCC3)O[C@@](C)(CO)C4)cncc21 (single isomer, unassigned) [Example 67]
70 | Cn1nnc2c(C(=O)Nc3cc4c(cc3N3CCOCC3)O[C@](C)(CO)C4)cncc21 (single isomer, unassigned) [Example 68]
37 | C[C@]1(CO)Cc2cc(NC(=O)c3csc4cc(Cl)cnc34)c(N3CCOCC3)cc2O1 (stereo in doubt) [Example 56, (R)-6-Chloro-N-(2-(hydroxymethyl)-2-methyl-6-morpholino-2,3-dihydrobenzofuran-5-yl)thieno[3,2-b]pyridine-3-carboxamide]
19 | C[C@@]1(CO)Cc2cc(NC(=O)c3csc4cc(Cl)cnc34)c(N3CCOCC3)cc2O1 (stereo in doubt) [Example 57, (S)-6-Chloro-N-(2-(hydroxymethyl)-2-methyl-6-morpholino-2,3-dihydrobenzofuran-5-yl)thieno[3,2-b]pyridine-3-carboxamide]
13 | CC1(C)Cc2cc(NC(=O)c3csc4c(N)ncnc34)c(N3CCOCC3)cc2O1 [Example 3, 4-Amino-N-(2,2-dimethyl-6-morpholino-2,3-dihydrobenzofuran-5-yl)thieno[3,2-d]pyrimidine-7-carboxamide]
7.1 | CC1(C)Cc2cc(NC(=O)c3cccc4[nH]nnc34)c(N3CCOCC3)cc2O1 [Example 4, N-(2,2-Dimethyl-6-morpholino-2,3-dihydrobenzofuran-5-yl)-1H-benzo[d][1,2,3]triazole-4-carboxamide]
38 | Cc1nc(C(=O)Nc2cc3c(cc2N2CCOCC2)OC(C)(C)C3)cs1 [Example 6, N-(2,2-Dimethyl-6-morpholino-2,3-dihydrobenzofuran-5-yl)-2-methylthiazole-4-carboxamide]
290 | CC1(C)Cc2cc(NC(=O)c3cnccn3)c(N3CCOCC3)cc2O1 [Example 11, N-(2,2-Dimethyl-6-morpholino-2,3-dihydrobenzofuran-5-yl)pyrazine-2-carboxamide]
30 | CC1(C)Cc2cc(NC(=O)c3cccc4[nH]cnc34)c(N3CCOCC3)cc2O1 [Example 20, N-(2,2-Dimethyl-6-morpholino-2,3-dihydrobenzofuran-5-yl)-1H-benzo[d]imidazole-4-carboxamide]
280 | CC1(C)Cc2cc(NC(=O)c3cncc4[nH]cnc34)c(N3CCOCC3)cc2O1 [Example 21, N-(2,2-Dimethyl-6-morpholino-2,3-dihydrobenzofuran-5-yl)-3H-imidazo[4,5-c]pyridine-7-carboxamide]
35 | Cc1nc2c(C(=O)Nc3cc4c(cc3N3CCOCC3)OC(C)(C)C4)cncc2[nH]1 [Example 25, N-(2,2-Dimethyl-6-morpholino-2,3-dihydrobenzofuran-5-yl)-2-methyl-3H-imidazo[4,5-c]pyridine-7-carboxamide]
42 | CC1(C)Cc2cc(NC(=O)c3ccccn3)c(N3CCOCC3)cc2O1 [Example 27, N-(2,2-Dimethyl-6-morpholino-2,3-dihydrobenzofuran-5-yl)picolinamide]

Further lines, the molecule ahead of its results:

SMILES | Ki [nM]
CC1(C)Cc2cc(NC(=O)c3cnn4c3OCCC4)c(N3CCOCC3)cc2O1 [Example 1, N-(2,2-Dimethyl-6-morpholino-2,3-dihydrobenzofuran-5-yl)-6,7-dihydro-5H-pyrazolo[5,1-b][1,3]oxazine-3-carboxamide] | 67
CC1(C)Cc2cc(NC(=O)c3ccc(O)nn3)c(N3CCOCC3)cc2O1 [Example 2, N-(2,2-Dimethyl-6-morpholino-2,3-dihydrobenzofuran-5-yl)-6-hydroxypyridazine-3-carboxamide] | 30
Cc1nc(C(=O)Nc2cc3c(cc2N2CCOCC2)OC(C)(C)C3)ccc1C#N [Example 5, 5-Cyano-N-(2,2-dimethyl-6-morpholino-2,3-dihydrobenzofuran-5-yl)-6-methylpicolinamide] | 25
Cc1cncc(C(=O)Nc2cc3c(cc2N2CCOCC2)OC(C)(C)C3)n1 [Example 7, N-(2,2-Dimethyl-6-morpholino-2,3-dihydrobenzofuran-5-yl)-6-methylpyrazine-2-carboxamide] | 43
CC1(C)Cc2cc(NC(=O)c3cccc(F)n3)c(N3CCOCC3)cc2O1 [Example 8, N-(2,2-Dimethyl-6-morpholino-2,3-dihydrobenzofuran-5-yl)-6-fluoropicolinamide] | 45
CC1(C)Cc2cc(NC(=O)c3ccnc(S(C)(=O)=O)n3)c(N3CCOCC3)cc2O1 [Example 9, N-(2,2-Dimethyl-6-morpholino-2,3-dihydrobenzofuran-5-yl)-2-(methylsulfonyl)pyrimidine-4-carboxamide] | 530
CC1(C)Cc2cc(NC(=O)c3cc4ccncc4o3)c(N3CCOCC3)cc2O1 [Example 10, N-(2,2-Dimethyl-6-morpholino-2,3-dihydrobenzofuran-5-yl)furo[2,3-c]pyridine-2-carboxamide] | 27
CC1(C)Cc2cc(NC(=O)c3ccc[nH]c3=O)c(N3CCOCC3)cc2O1 [Example 12, N-(2,2-Dimethyl-6-morpholino-2,3-dihydrobenzofuran-5-yl)-2-oxo-1,2-dihydropyridine-3-carboxamide] | 77
Cc1cnc(C(=O)Nc2cc3c(cc2N2CCOCC2)OC(C)(C)C3)cn1 [Example 13, N-(2,2-Dimethyl-6-morpholino-2,3-dihydrobenzofuran-5-yl)-5-methylpyrazine-2-carboxamide] | 280
CC1(C)Cc2cc(NC(=O)c3cnsn3)c(N3CCOCC3)cc2O1 [Example 14, N-(2,2-Dimethyl-6-morpholino-2,3-dihydrobenzofuran-5-yl)-1,2,5-thiadiazole-3-carboxamide] | 340
CC1(C)Cc2cc(NC(=O)c3cnc4cccnn34)c(N3CCOCC3)cc2O1 [Example 15, N-(2,2-Dimethyl-6-morpholino-2,3-dihydrobenzofuran-5-yl)imidazo[1,2-b]pyridazine-3-carboxamide] | 36
CC1(C)Cc2cc(NC(=O)c3cccc(C(F)(F)F)n3)c(N3CCOCC3)cc2O1 [Example 22, N-(2,2-Dimethyl-6-morpholino-2,3-dihydrobenzofuran-5-yl)-6-(trifluoromethyl)picolinamide] | 25
C[C@H]1COCCN1c1nc(C(=O)Nc2cc3c(cc2N2CCOCC2)OC(C)(C)C3)co1 [Example 26, (S)-N-(2,2-Dimethyl-6-morpholino-2,3-dihydrobenzofuran-5-yl)-2-(3-methylmorpholino)oxazole-4-carboxamide] | 35
